Measurements as given in patent US6969712B2, “Benzimidazole derivatives” (Banyu Pharmaceutical Co., Ltd., priority 2000, dated 2005).
pIC50: −log10 of the molar value. Counter-ions that a name gives are not always drawn.

How the values were obtained:
[1] = target: T1, nociceptin receptor ORL1 (Homo sapiens, UniProt P41146); assay: Nociceptin receptor binding inhibition assay; details: inhibition of 50 pM [125I]Tyr14-Nociceptin binding to CHO/ORL1 cell membrane, SPA beads, 37° C., 60 minutes; read-out: IC50 value, nociceptin receptor binding inhibition action
T1 construct: expressed in transfected cells
T1 sequence (P41146 whole entry): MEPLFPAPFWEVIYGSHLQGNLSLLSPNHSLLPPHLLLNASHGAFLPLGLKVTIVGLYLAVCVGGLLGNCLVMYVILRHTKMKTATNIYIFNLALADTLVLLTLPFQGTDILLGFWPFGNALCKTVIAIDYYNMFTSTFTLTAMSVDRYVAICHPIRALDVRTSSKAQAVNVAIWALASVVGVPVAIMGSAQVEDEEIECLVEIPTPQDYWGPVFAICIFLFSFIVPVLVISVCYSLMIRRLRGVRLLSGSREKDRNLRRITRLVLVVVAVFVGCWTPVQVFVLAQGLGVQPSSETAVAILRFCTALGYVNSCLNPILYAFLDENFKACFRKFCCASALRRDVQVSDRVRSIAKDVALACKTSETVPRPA
Description: cDNA which codes a human nociceptin receptor gene (accession No.X77130) was cloned into an expression vector pCR3 (Invitrogen) to prepare pCR3/ORL1. Next, pCR3/ORL1 was transfected in CHO cells using a transfectam (Nippongene) following the directions in the manual appended to the reagent to obtain a stable expression strain (CHO/ORL1 cells) having resistance against 1 mg/ml concentration G418. A membrane fraction (a precipitate fraction obtained by an hour's centrifuge at 100,000 G of the supernatant resulting from 15 minutes' certrifuge at 10,000 G) was prepared from this stable expression strain to carry out a receptor binding assay.
Eleven (11) μg of the membrane, 50 pM [^125I] Tyr^14-Nociceptin (Amersham Pharmacia Biotech) (specific activity 2000 Ci/mmol), 1 mg Wheatgerm agglutinin SPA beads (PVT based; Amersham Pharmacia Biotech) and a test compound were suspended in an NC buffer (50 mM Hepes, 10 mM sodium chloride, 1 mM magnesium chloride, 2.5 mM calcium chloride, 0.1% BSA, 0.025% bacitracin, pH 7.4) and incubated at 37° C. for 60 minutes, and then the radioactivity was determined with Top Count (Packard). The binding activity to the nociceptin receptor was expressed by the 50% inhibition concentration (IC50 value) which was calculated from the inhibition activity to binding to ORL1 receptor of [^125I] Tyr^14-Nociceptin by the compounds of the present invention at various concentrations.

[2] = target: T1, nociceptin receptor ORL1; assay: Antagonism against nociceptin-elicited G protein activation (GTPγ[35S] binding); format: biochemical; details: GTPγ[35S] binding inhibition, CHO/ORL1 cell membrane, 50 nM nociceptin, 25° C., 150 minutes
Description: CHO cells which stably expressed a nociceptin receptor ORL1 were used to investigate the action of tested compounds against nociceptin-elicited G protein activation. A membrane prepared from the CHO/ORL1 cell, 50 nM nociceptin, 200 pM GTPγ[^35S](NEN), 1.5 mg Wheatgerm agglutinin SPA beads (PVT based; Amersham Pharmacia Biotech) and each of the tested compounds were mixed in a GDP buffer (20 mM Hepes, 100 mM sodium chloride, 10 mM magnesium chloride, 1 mM EDTA, 5 μM GDP, pH 7.4) and incubated at 25° C. for 150 minutes, and then the radioactivity was determined. The antagonism against nociceptin-elicited G protein activation was shown by the 50% inhibition concentration (IC50 value) which was calculated from GTP γ [^35S] binding inhibition activity of the compounds of the present invention at various concentrations. From the result it can be understood that the compounds of the invention have antagonism against nociceptin-elicited G protein activation via ORL1 receptor.

| SMILES | pIC50 [1] | pIC50 [2] |
| --- | --- | --- |
| CCC(CC)Sc1nc2cc(Cl)c(N3CCNCC3)cc2[nH]1 [Example 1, 5-chloro-2-[(1-ethylpropyl)sulfanyl]-6-(piperazin-1-yl) benzimidazole dihydrochloride] | 8.68 | 8.04 |
| CC(CC(C)(C)C)Sc1nc2cc(N3CCNCC3)c(Cl)cc2[nH]1 (centres unmarked) [Example 26, 5-chloro-6-(piperazin-1-yl)-2-[(1,3,3-trimethylbutyl)-sulfanyl]benzimidazole dihydrochloride] | 8.89 | 8.28 |
| CCC(CC)Sc1nc2cc(Cl)c(N3CCN(CCO)CC3)cc2[nH]1 [Example 89, 5-chloro-2-[(1-ethylpropyl)sulfanyl]-6-[4-(2-hydroxyethyl)piperazin-1-yl]benzimidazole dihydrochloride] | 8.19 | 8.17 |
| CC(C)(CN1CCOCC1)Sc1nc2cc(N3CCN(CCO)CC3)c(Cl)cc2[nH]1 [Example 101, 5-chloro-2-[(1,1-dimethyl-2-morpholinoethyl)sulfanyl]-6-[4-(2-hydroxyethyl)piperazin-1-yl]benzimidazole trihydrochloride] | 8.04 | 8.10 |
| Clc1cc2[nH]c(SCC3CCCCC3)nc2cc1N1CCN(CC2CC2)CC1 [Example 102, 5-chloro-2-[(cyclohexylmethyl)sulfanyl]-6-[4-(cyclopropylmethyl)piperazin-1-yl]benzimidazole] | 8.46 | – |
| CC1(Sc2nc3c(F)c(N4CCN(CCO)CC4)c(Cl)cc3[nH]2)CCCC1 [Example 142, 5-chloro-7-fluoro-6-[4-(2-hydroxyethyl)piperazin-1-yl]-2-[(1-methylcyclopentyl)sulfanyl]benzimidazole] | 9.02 | 9.24 |
| CCC(CC)COc1nc2cc(N3CCNCC3)c(Cl)cc2[nH]1 [Referential Example 1, 5-chloro-2-[(2-ethylbutyl)oxy]-6-(piperazin-1-yl)benzimidazole dihydrochloride] | 8.15 | 6.74 |
| CCCC(CC)Nc1nc2cc(N3CCNCC3)c(Cl)cc2[nH]1 (centres unmarked) [Referential Example 13, 5-chloro-2-[(1-ethylbutyl)amino]-6-(piperazin-1-yl)-benzimidazole dihydrochloride] | 6.37 | – |
